The record followed here is ChEMBL document CHEMBL3507680, “University of Dundee, Gates Library screen for HepG2 cell viability”.

The series can be described thus: Human HepG2 cell viability assay in 384 well format. Format: toxicity, cell-based. More on the design: dose 125 nL, time 70.5 hour; cytotoxicity at 70.5 h: concentration not given beside the values. As to conditions: HepG2 cells, read-out: Inhibition.
Consider `COCCn1ccnc1CN(Cc1ccccn1)Cc1sccc1C`, for which the cytotoxicity at 70.5 h was -7.84%.

For the compound `Cc1ccccc1NC(=O)NCCn1nc(C(F)(F)F)n(C)c1=O`, the cytotoxicity at 70.5 h was -2.02%. As to `CCCNC(=O)N1CCc2ccc(S(=O)(=O)N3CCOCC3)cc2C1`, the cytotoxicity at 70.5 h is -16.2%.

`CC(C)Cc1nc(NC(=O)c2cccnc2)n[nH]1`: the cytotoxicity at 70.5 h was -14.7%.

Regarding `CC(Cn1cccn1)NC(=O)NCc1cccs1` (stereo not given), the cytotoxicity at 70.5 h is -16.6%. The value for `COc1ccc(-c2cc3cccn(CC(=O)N4CCOCC4)c-3n2)cc1` was 10.5%. The figure for `CC(C)Oc1ccc(C(=O)NCc2ccnc(N3CCCC3)c2)cn1` is -10.1%. The value for `COC(=O)C(C)(C)NC(=O)c1scnc1Cl` was 0.537%; that for `O=C1CCC2(CCN(Cc3ccc(F)cc3)CC2)N1Cc1ccccc1` was -5.78%.

On to `CC(C)NC(=O)c1ccn(COc2c(Cl)cccc2Cl)n1`, for which the cytotoxicity at 70.5 h is -8.01%. On to `Cc1cnn(C2CCCN(C(=O)c3ccc(O)nc3)C2)c1` (stereo not given), for which the cytotoxicity at 70.5 h is -12.4%. The value for `Cc1cccc(C(C(=O)NCc2csc(-c3ncccn3)n2)N(C)C)c1` (stereo not given) was -0.325%; that for `CC(C)C(O)CNC(=O)CCCc1ccccn1` (stereo not given) was 2.25%.

With `COCCN1C(=O)[C@H]2CC[C@@H]1CN(S(=O)(=O)c1ccc(OC)cc1)C2`, the cytotoxicity at 70.5 h is -3.09%.

In the case of `CN(C)CC1CN(Cc2nc(-c3cccnc3)no2)CCO1` (stereo not given), the cytotoxicity at 70.5 h is -12.3%. For the compound `CCCn1ncc(CN2C[C@@H]3CCCN3C[C@H]2CCSC)c1C`, the cytotoxicity at 70.5 h was -1.67%. The value for `CCN1CCC(CC(=O)N2CCc3sc(C(=O)N(C)C)cc3C2)CC1` was 20.6%.

Regarding `Cc1ccc(NC(=O)CNC(C)CN2CCOCC2)c(F)c1` (stereo not given), the cytotoxicity at 70.5 h is -9.12%. For `CS(=O)(=O)NC[C@]12COC[C@H]1CN(CC1CCCC1)C2`, the cytotoxicity at 70.5 h was -12.8%.

In the case of `CC(=O)c1ccc(OCC(=O)c2cccn2C)cc1`, the cytotoxicity at 70.5 h was -0.625%. The value for `CC(C)n1ccc2c(C(=O)NC3CN4CCC3CC4)cccc21` (stereo not given) was -17.6%; that for `CCC1(CC)C(=O)NC(=O)N=C1Nc1ccc(C)cc1` was -10.3%; that for `Cc1ccc(CN2CCn3cc(CNC(=O)c4cnn(C)c4)nc3C2)s1` was -102%. With `COc1cc(C2CC(=O)c3c(O)cc(O)cc3O2)ccc1O` (stereo not given), the cytotoxicity at 70.5 h was -8.7%. The figure for `NC(=O)CSCC(=O)N1CCc2cc(Cl)cc(Cl)c2C1` is -10.4%. `CCOC(=O)N1CCC(NC(=O)Nc2cccnc2OCC)CC1`: the cytotoxicity at 70.5 h was found to be 6.34%. Turning to `CC(C)Oc1cc(N2CCC(N3CCC(O)CC3)CC2)nc(N)n1`, the cytotoxicity at 70.5 h was -7.04%. For the compound `CN(Cc1ccco1)[C@@H]1CN(Cc2ccc(F)cc2)[C@@H]2CCCO[C@H]12`, the cytotoxicity at 70.5 h amounted to 6.23%. For the compound `CN(C)CCN(C)c1cc(N2CCN(c3ccccn3)CC2)ncn1`, the cytotoxicity at 70.5 h was 13.5%. The figure for `CN(C)c1nccc(C2CCCN(C(=O)CO)C2)n1` (stereo not given) is -7.31%. The value for `COCCN1CCO[C@@H]2CN(Cc3sccc3C)C[C@@H]2C1` was 1.15%; that for `O=C(NCCn1ccnc1)NCc1ccc(N2CCCCCC2)nc1` was -14.2%. Turning to `COc1nc2ccn(CCNc3cc(C)ccn3)c(=O)c2cc1C#N`, the cytotoxicity at 70.5 h was -3.78%. The value for `Cc1nnc(NCCc2coc(-c3ccccc3)n2)c(C#N)c1C` was -2.75%; that for `COC(=O)c1ccc(S(=O)(=O)NCc2cccnc2N(C)C)cc1` was 29.6%; that for `Fc1ccc(CN2CCCn3cnc(COCC4CC4)c3C2)cc1` was 2.87%. The value for `CC(C)(O)CCc1ccc(C(=O)NCCC2CCOC2)cc1` (stereo not given) was -2.2%; that for `COc1ccc(-c2cccc3c2OC(CN)C3)cc1F` (stereo not given) was 5.9%.

As for `NC(=O)c1nnn(-c2ccc(Cl)cc2)n1`, the cytotoxicity at 70.5 h was -5.31%. The figure for `CN(CC1CN(CCn2cc(C#N)cn2)CCO1)c1cccnn1` (stereo not given) is -6.68%. The figure for `O=C(NCc1cccs1)NCC(O)(c1cccs1)C1CC1` (stereo not given) is -12.2%.

With `CC(=O)N1CCCC(c2ccc(Cc3ccccc3)cn2)C1` (stereo not given), the cytotoxicity at 70.5 h was 20%.

Turning to `CNC(=O)C1CN(C(=O)c2cccs2)CCN(S(C)(=O)=O)C1` (stereo not given), the cytotoxicity at 70.5 h was -2.89%. The figure for `N[C@@H]1c2ccccc2C2(CCN(C(=O)c3ccc(CO)o3)CC2)[C@H]1O` is -5.57%; for `Cc1noc(C)c1CCC(=O)N(C)C(C)c1cccs1` (stereo not given) it is -11.3%; for `Cc1noc(C)c1CNCC1CCN(CC(O)c2ccccc2)CC1` (stereo not given) it is 2.35%.

Take `Cc1cc(NC(=O)CO)nn1-c1ccc(Cl)cc1Cl`: the cytotoxicity at 70.5 h came to 4.81%. The value for `CCC(=O)N1C[C@@H]2CCN(c3cnccn3)C[C@@H]2C1` was 35.4%; that for `CN1C[C@@H](C(=O)N2CCCOCC2)[C@@]2(CCc3ccccc3C(=O)N2)C1` was -1.32%.

For `CSc1cccc(CNC(=O)C2CC(=O)N(C3CC3)C2)c1` (stereo not given), the cytotoxicity at 70.5 h is -1.83%. The figure for `Cc1cc(F)c(S(=O)(=O)NCCCN2CCC(O)CC2)cc1F` is 7.32%; for `CCS(=O)(=O)N1CCC2(CCCN(Cc3ccc(F)c(F)c3)C2=O)C1` (stereo not given) it is 1.7%. The value for `CC(C)NC[C@H]1COCc2nc3cccnc3n21` was -8.17%; that for `Cc1csc([C@H]2C[C@@H]3CCN(C(=O)c4cnccn4)C[C@H]3O2)n1` was -3.11%. The figure for `COc1ccc(-c2nnc(CNCCn3cccn3)o2)cc1` is -9.2%; for `CCN1Cc2nc(OC)c(CNC(=O)C3CCS(=O)(=O)CC3)cc2C1=O` it is -2.6%. Turning to `CCCC(C#N)NC(=O)COC1CCCCC1` (stereo not given), the cytotoxicity at 70.5 h is 6.33%. The figure for `Cn1ccnc1C1CCN(C(=O)COCC(F)(F)C(F)F)CC1` is -14.1%; for `CCOCCC(=O)NCC(C)c1ccsc1` (stereo not given) it is -5.93%. The value for `Cc1cc(NC2CC3(CCN(Cc4cscn4)C3)C2)ncn1` (stereo not given) was -6.43%; that for `O=C(C1CC=CC1)N1CC[C@@H](O)[C@H]1Cc1cccnc1` was 1.93%; that for `Cc1nc(N(C)C)nc2c1COCC21CCN(C(=O)C2CC2)C1` (stereo not given) was -3.72%. The value for `COc1nc(N2CCN(C(C)=O)CC2)ncc1Br` was -3.12%; that for `CCN1CCCc2cc(-c3cncn3C(C)CN3CCOCC3)ccc21` (stereo not given) was -4.04%. As to `CCCN1CCC(N2CCN(c3cccc(C)n3)CC2)CC1`, the cytotoxicity at 70.5 h was determined as 5.86%.

In the case of `Cc1nccc(C(=O)N2CCOC(c3nc(C(C)C)n[nH]3)C2)n1` (stereo not given), the cytotoxicity at 70.5 h was -5.71%. The value for `COC[C@]1(O)CCN(Cc2cnc(N(C)C)nc2)CC1(C)C` was -18.8%; that for `Cc1ccc(-c2nc(CN3CCc4cnc(C)nc4C3)no2)cc1` was 0.992%; that for `O=C(NCc1ccnc(OCC2CC2)c1)C1COc2ccccc2O1` (stereo not given) was 0.151%.

Take `CC(c1ccccc1)n1c(SCC(=O)O)nnc1-c1ccn[nH]1` (stereo not given): the cytotoxicity at 70.5 h is -5.88%. Take `Cc1[nH]c2nc(CNc3ccccc3Cl)nn2c(=O)c1C`: the cytotoxicity at 70.5 h is -10.8%.

In the case of `Cc1ccc(F)cc1C(=O)OCC1CCCN1C(N)=O` (stereo not given), the cytotoxicity at 70.5 h was -1.91%. As for `NC(=O)CN(Cc1ccc(Br)cc1)C(=O)c1ccccn1`, the cytotoxicity at 70.5 h was -4.46%. As to `CC(CN1CCOC1=O)NC(=O)c1cccc(C#N)c1` (stereo not given), the cytotoxicity at 70.5 h is -3.83%. The value for `CNC(=O)CN(C)c1cncc(OCC(C)C)n1` was -5.85%; that for `CS(=O)(=O)N1CCCC(Cc2ccnc(Nc3ccccn3)c2)C1` (stereo not given) was -6.97%. The figure for `Cc1noc(C)c1S(=O)(=O)NC(=O)COc1ccc2c(c1)CCC2` is -13.5%.

As to `CC1CCN(CC(=O)NC2CCN(C(C)c3ccccc3)CC2)CC1` (stereo not given), the cytotoxicity at 70.5 h is -12.3%. The figure for `Cc1nc2ccc(C(=O)N3CCn4c(nnc4C4CC4)C3)cc2nc1C` is -4.74%. As to `O=C([C@H]1C[C@@H]2CN(c3ncc(F)cn3)C[C@H]1O2)N1CCOCC1`, the cytotoxicity at 70.5 h was -7.72%. The value for `Cc1ccc(-c2noc(C(C)NS(C)(=O)=O)n2)cc1` (stereo not given) was 21.2%; that for `O=C(CCn1nc(-c2cccs2)oc1=O)Nc1cccc(F)c1` was -6.28%; that for `O=C(NCCc1coc(-c2ccc(F)cc2)n1)NC1CCC(O)CC1` (stereo not given) was 27.6%. In the case of `Cc1oncc1C(=O)N1CC2CC1(C(=O)N(C)C)C2`, the cytotoxicity at 70.5 h was -6.15%.

`CCc1noc(CN2CCCN(C(N)=O)CC2)n1`: the cytotoxicity at 70.5 h is -12%. As to `CCOCC1c2c(cnn2C)CCN1C(=O)c1ccncn1` (stereo not given), the cytotoxicity at 70.5 h was -14.6%. The figure for `c1ncn(Cc2nnc(C3CCN(CC4CC4)CC3)n2C2CC2)n1` is -15.3%. Turning to `CCO[C@@H]1CO[C@@]2(CCCN(C(=O)COc3ccccc3OC)C2)C1`, the cytotoxicity at 70.5 h was -9.81%. The value for `O=C(O)C1CN(c2cccc(Cl)c2)CCO1` (stereo not given) was -4.2%. The figure for `CCN1C(=O)CCCC12CCCN(C(=O)c1ccsc1)C2` (stereo not given) is 1.97%; for `Cc1ncc2c(n1)CN(Cc1nc(-c3cccs3)no1)CC2` it is 9.81%; for `COCC(=O)Nc1ccc2c(c1)CN(C(=O)c1ccco1)CC2` it is 23.8%. The value for `CN(C)CCN1CCO[C@H]2CN(C(=O)C3CCOCC3)C[C@H]21` was -4.53%; that for `COCCN1CCC2(COCCN(Cc3ccc4c(c3)OCO4)C2)C1` (stereo not given) was -9.54%. For the compound `O=S(=O)(c1cccnc1)N1CCN(Cc2nc(-c3cccs3)cs2)CC1`, the cytotoxicity at 70.5 h is -14.7%.

As for `O=C(c1cc(-n2cccn2)ccn1)N1CCOc2ccc(F)cc21`, the cytotoxicity at 70.5 h stood at 0.748%. The value for `CC(C)n1ccnc1CN1CCCN(C(=O)CC2C=CCC2)CC1` (stereo not given) was 31.4%; that for `CC(=O)N1CCC2(C1)c1ccccc1S(=O)(=O)N2C` (stereo not given) was -7.77%; that for `CCOC(=O)NCCNC(=O)c1cc2ccccc2nc1N1CCCC1` was 2.35%.

With `CSc1c(CC(=O)O)n(C)c2ccccc12`, the cytotoxicity at 70.5 h is -0.594%.
